Reference: ChEMBL document CHEMBL3085740, “Aziridines from alkenyl-β-D-galactopyranoside derivatives: Stereoselective synthesis and in vitro selective anticancer activity” (Eur J Med Chem, 2013)
pIC50: −log10 of the molar value.

Tests used:
MRC5 = assay: Cytotoxicity against human MRC5 cells after 48 hrs by MTT assay; assay type: cell-based; settings: MRC5, 48 h
A549 [1] = assay: Cytotoxicity against human A549 cells after 48 hrs by MTT assay; assay type: functional, cell-based; settings: A549, 48 h
[2] = Cytotoxicity against human MRC5 cells assessed as cell survival at 10 to 320 uM after 48 hrs by MTT assay; assay type: cell-based; settings: read-out: Survival
A549 [3] = assay: Cytotoxicity against human A549 cells at 300 uM after 48 hrs by MTT assay; assay type: functional
UACC-62 [4] = assay: Cytotoxicity against human UACC62 cells after 48 hrs by MTT assay; assay type: functional, cell-based; settings: UACC-62, 48 h
UACC-62 [5] = assay: Cytotoxicity against human UACC62 cells assessed as cell viability at 1 mM after 48 hrs by MTT assay; assay type: functional; settings: UACC-62, 48 h, read-out: Activity
[6] = Cytotoxicity against human VH10 cells after 48 hrs by MTT assay; assay type: cell-based; settings: VH10, 48 h
[7] = Cytotoxicity against human VH10 cells at 1 mM after 48 hrs by MTT assay; assay type: cell-based; settings: vh10, 48 h, 1000 µM
MCF7 = assay: Cytotoxicity against human MCF7 cells after 48 hrs by MTT assay; assay type: functional, cell-based; settings: MCF7, 48 h
[8] = Cytotoxicity against human MCF10 cells assessed as cell survival at 264 uM after 48 hrs by MTT assay; assay type: cell-based; settings: read-out: Survival
MCF10 = assay: Cytotoxicity against human MCF10 cells after 48 hrs by MTT assay; assay type: cell-based; settings: MCF10, 48 h

In the case of `Cc1ccc(S(=O)(=O)N2C(C)C2CO[C@@H]2O[C@@H]3CO[C@H](c4ccccc4)O[C@@H]3[C@H](O)[C@H]2O)cc1` (stereo partly drawn), the pIC50 (MRC5) was 3.26 and the pIC50 (A549 [1]) was 3.45.

Work on `CCCCCCCCCCCCCCC(CO[C@@H]1O[C@@H]2CO[C@H](c3ccccc3)O[C@@H]2[C@H](OCc2ccccc2)[C@H]1OCc1ccccc1)(CN1CCN(CCO)CC1)NS(=O)(=O)c1ccc(C)cc1` (stereo partly drawn) yielded a pIC50 (MRC5) of 5.70 and a pIC50 (A549 [1]) of 4.82.

Work on `CCCCCCCCCCCCNCC(C)(CO[C@@H]1O[C@@H]2CO[C@H](c3ccccc3)O[C@@H]2[C@H](OCc2ccccc2)[C@H]1OCc1ccccc1)NS(=O)(=O)c1ccc(C)cc1` (stereo partly drawn) yielded a pIC50 (MRC5) of 3.81 and a pIC50 (A549 [1]) of 3.31.

In the case of `CCCCCCCCCCCCCCC1(CO[C@@H]2O[C@@H]3CO[C@H](c4ccccc4)O[C@@H]3[C@H](OCc3ccccc3)[C@H]2OCc2ccccc2)CN1S(=O)(=O)c1ccc(C)cc1` (stereo partly drawn), the pIC50 (MRC5) was 3.00 and the pIC50 (A549 [1]) was 3.00.

In the case of `CCCCCCCCCC1(CO[C@@H]2O[C@@H]3CO[C@H](c4ccccc4)O[C@@H]3[C@H](OCc3ccccc3)[C@H]2OCc2ccccc2)CN1S(=O)(=O)c1ccc(C)cc1` (stereo partly drawn), the pIC50 (MRC5) was 3.24, the pIC50 (A549 [1]) was 3.81 and the viability at 48 h, up to 320 µM [2] was 90%. The Activity (A549 [3]) was 30%.

Work on `CCCC1(CO[C@@H]2O[C@@H]3CO[C@H](c4ccccc4)O[C@@H]3[C@H](OCc3ccccc3)[C@H]2OCc2ccccc2)CN1S(=O)(=O)c1ccc(C)cc1` (stereo partly drawn) yielded a pIC50 (MRC5) of 3.10 and a pIC50 (A549 [1]) of 3.24.

With `Cc1ccc(S(=O)(=O)N2CC2(CO[C@@H]2O[C@@H]3CO[C@H](c4ccccc4)O[C@@H]3[C@H](OCc3ccccc3)[C@H]2OCc2ccccc2)c2ccccc2)cc1` (stereo partly drawn) the pIC50 (MRC5) was 3.24 and the pIC50 (A549 [1]) was 3.22.

For `Cc1ccc(S(=O)(=O)N2C(C)C2CO[C@@H]2O[C@@H]3CO[C@H](c4ccccc4)O[C@@H]3[C@H](OCc3ccccc3)[C@H]2OCc2ccccc2)cc1` (stereo partly drawn), the pIC50 (MRC5) was less than 3.00 and the pIC50 (A549 [1]) was 3.09.

`CCCCCCCC1C(CO[C@@H]2O[C@@H]3CO[C@H](c4ccccc4)O[C@@H]3[C@H](OCc3ccccc3)[C@H]2O)N1S(=O)(=O)c1ccc(C)cc1` (stereo partly drawn) showed a pIC50 (MRC5) of less than 3.00, a pIC50 (A549 [1]) of 3.63 and a viability at 48 h, up to 320 µM [2] of 90%.

For `Cc1ccc(S(=O)(=O)N2C(CO[C@@H]3O[C@@H]4CO[C@H](c5ccccc5)O[C@@H]4[C@H](OCc4ccccc4)[C@H]3OCc3ccccc3)C2(C)C)cc1` (stereo partly drawn), the pIC50 (MRC5) was less than 3.00 and the pIC50 (A549 [1]) was less than 3.00.

For `Cc1ccc(S(=O)(=O)N2CC2(C)CO[C@@H]2O[C@@H]3CO[C@H](c4ccccc4)O[C@@H]3[C@H](O)[C@H]2O)cc1` (stereo partly drawn), the pIC50 (MRC5) was 3.51 and the pIC50 (A549 [1]) was 3.81.

`Cc1ccc(S(=O)(=O)N2C(CO[C@@H]3O[C@@H]4CO[C@H](c5ccccc5)O[C@@H]4[C@H](O)[C@H]3O)C2(C)C)cc1` (stereo partly drawn) showed a pIC50 (MRC5) of 3.25 and a pIC50 (A549 [1]) of 3.41.

Work on `Cc1ccc(S(=O)(=O)N2CC2CO[C@@H]2O[C@@H]3CO[C@H](c4ccccc4)O[C@@H]3[C@H](OCc3ccccc3)[C@H]2OCc2ccccc2)cc1` (stereo partly drawn) yielded a pIC50 (MRC5) of 3.74, a pIC50 (A549 [1]) of 4.14 and a viability at 48 h, up to 320 µM [2] of 90%.

With `Cc1ccc(S(=O)(=O)N2CC2(C)CO[C@@H]2O[C@@H]3CO[C@H](c4ccccc4)O[C@@H]3[C@H](OCc3ccccc3)[C@H]2OCc2ccccc2)cc1` (stereo partly drawn) the pIC50 (MRC5) was less than 3.00, the pIC50 (UACC-62 [4]) was 3.71 and the pIC50 (A549 [1]) was 3.82. For the same compound, the viability at 1000 µM (UACC-62 [5]) was 10%, the pIC50 [6] was less than 3.00 and the viability at 48 h, up to 320 µM [2] was 90%. For the same compound, the Activity [7] was “Non-toxic”, the pIC50 (MCF7) was 4.92 and the viability at 48 h, 264 µM [8] was 80%. The pIC50 (MCF10) was 3.25 and the Activity (A549 [3]) was 30%.

`O=c1[nH]cc(F)c(=O)[nH]1` [FLUOROURACIL] showed a pIC50 (UACC-62 [4]) of 3.58 and a pIC50 [6] of less than 3.00.
